From ChEMBL document CHEMBL1629642, “In vitro efficacy of ST246 against smallpox and monkeypox” (Antimicrob Agents Chemother, 2009)
Active and inactive are the calls of the source. No cut-off for these calls is given here.

Columns and labels:
[1] = tested on: Monkeypox virus; experiment: Antiviral activity against Monkeypox virus V78-I-3945 infected in african green monkey BSC-40 cells at 0.005 uM by IHC staining-based comet tail reduction assay; type: functional, organism-based
[2] = tested on: Monkeypox virus; experiment: Antiviral activity against Monkeypox virus V81-I-179 infected in african green monkey BSC-40 cells assessed as reduction in virus-induced cytopathic effect at 0.005 uM; type: functional, organism-based
[3] = tested on: Monkeypox virus; experiment: Antiviral activity against Monkeypox virus V78-I-3945 infected in african green monkey BSC-40 cells assessed as reduction in virus-induced cytopathic effect at 0.005 uM; type: functional, organism-based
[4] = tested on: Monkeypox virus; experiment: Antiviral activity against Monkeypox virus V1979-I-005 infected in african green monkey BSC-40 cells assessed as reduction in virus-induced cytopathic effect at 0.05 to 5 uM; type: functional, organism-based
[5] = tested on: Variola virus; experiment: Antiviral activity against Variola virus BRZ66-39 infected in african green monkey BSC-40 cells at 0.05 to 0.5 uM by IHC staining-based comet tail reduction assay; type: functional, organism-based
[6] = tested on: Variola virus; experiment: Antiviral activity against Variola virus SOM77-ali infected in african green monkey BSC-40 cells at 0.05 to 5 uM assessed as reduction in virus-induced cytopathic effect; type: functional, organism-based
[7] = tested on: Monkeypox virus; experiment: Antiviral activity against Monkeypox virus V81-I-179 infected in african green monkey BSC-40 cells at 0.05 to 0.5 uM by IHC staining-based plaque reduction assay; type: functional, organism-based
[8] = tested on: Monkeypox virus; experiment: Antiviral activity against Monkeypox virus 2003-USA-039 infected in african green monkey BSC-40 cells at 0.005 uM uM by IHC staining-based plaque reduction assay; type: functional, organism-based
[9] = tested on: Variola virus; experiment: Antiviral activity against Variola virus NEP73-175 infected in african green monkey BSC-40 cells at 0.05 to 5 uM assessed as reduction in virus-induced cytopathic effect; type: functional, organism-based
[10] = tested on: Monkeypox virus; experiment: Antiviral activity against Monkeypox virus V1979-I-005 infected in african green monkey BSC-40 cells at 0.05 to 0.5 uM by IHC staining-based comet tail reduction assay; type: functional, organism-based
[11] = tested on: Monkeypox virus; experiment: Antiviral activity against Monkeypox virus V1979-I-005 infected in african green monkey BSC-40 cells at 0.005 uM uM by IHC staining-based plaque reduction assay; type: functional, organism-based
[12] = tested on: Variola virus; experiment: Antiviral activity against Variola virus SOM77-ali infected in african green monkey BSC-40 cells at 0.015 uM assessed as reduction in virus-induced cytopathic effect; type: functional, organism-based
[13] = tested on: Variola virus; experiment: Antiviral activity against Variola virus SUD47-juba infected in african green monkey BSC-40 cells at 0.05 to 5 uM assessed as reduction in virus-induced cytopathic effect; type: functional, organism-based
[14] = tested on: Monkeypox virus; experiment: Antiviral activity against Monkeypox virus V81-I-179 infected in african green monkey BSC-40 cells assessed as reduction in viral plaque formation at 0.015 uM uM by IHC staining-based plaque reduction assay; type: functional
[15] = tested on: Variola virus; experiment: Antiviral activity against Variola virus BSH74-sol infected in african green monkey BSC-40 cells at 0.05 to 5 uM assessed as reduction in virus-induced cytopathic effect; type: functional, organism-based
[16] = tested on: Variola virus; experiment: Antiviral activity against Variola virus SLN68-258 infected in african green monkey BSC-40 cells at 0.005 uM uM by IHC staining-based plaque reduction assay; type: functional, organism-based
[17] = tested on: Variola virus; experiment: Antiviral activity against Variola virus NEP73-175 infected in african green monkey BSC-40 cells at 0.015 uM by IHC staining-based comet tail reduction assay; type: functional, organism-based
[18] = tested on: Variola virus; experiment: Antiviral activity against Variola virus BRZ66-39 infected in african green monkey BSC-40 cells at 0.005 uM uM by IHC staining-based plaque reduction assay; type: functional, organism-based
[19] = tested on: Variola virus; experiment: Antiviral activity against Variola virus SLN68-258 infected in african green monkey BSC-40 cells at 0.05 to 0.5 uM by IHC staining-based comet tail reduction assay; type: functional, organism-based
[20] = tested on: Monkeypox virus; experiment: Antiviral activity against Monkeypox virus 2003-USA-039 infected in african green monkey BSC-40 cells assessed as reduction in virus-induced cytopathic effect; type: functional, organism-based; conditions: 2003-USA-039, BSC-40
[21] = tested on: Monkeypox virus; experiment: Antiviral activity against Monkeypox virus V77-I-823 infected in african green monkey BSC-40 cells assessed as reduction in virus-induced cytopathic effect at 0.05 to 5 uM; type: functional, organism-based
[22] = tested on: Variola virus; experiment: Antiviral activity against Variola virus BRZ66-39 infected in african green monkey BSC-40 cells at 0.05 to 5 uM assessed as reduction in virus-induced cytopathic effect; type: functional, organism-based
[23] = tested on: Variola virus; experiment: microbe, parasite or virus in culture; conditions: BSH74-sol, BSC-40
[24] = tested on: Variola virus; experiment: Antiviral activity against Variola virus BRZ66-39 infected in african green monkey BSC-40 cells assessed as reduction in viral plaque formation at 0.015 uM uM by IHC staining-based plaque reduction assay; type: functional
[25] = tested on: Monkeypox virus; experiment: Antiviral activity against Monkeypox virus V1979-I-005 infected in african green monkey BSC-40 cells assessed as reduction in virus-induced cytopathic effect at 0.015 uM; type: functional, organism-based
[26] = tested on: Monkeypox virus; experiment: Antiviral activity against Monkeypox virus V77-I-823 infected in african green monkey BSC-40 cells assessed as reduction in viral plaque formation at 0.015 uM uM by IHC staining-based plaque reduction assay; type: functional
[27] = tested on: Monkeypox virus; experiment: Antiviral activity against Monkeypox virus V77-I-823 infected in african green monkey BSC-40 cells assessed as reduction in virus-induced cytopathic effect at 0.005 uM; type: functional, organism-based
[28] = tested on: Monkeypox virus; experiment: Antiviral activity against Monkeypox virus V81-I-179 infected in african green monkey BSC-40 cells assessed as reduction in virus-induced cytopathic effect; type: functional, organism-based; conditions: V81-I-179, BSC-40
[29] = tested on: Monkeypox virus; experiment: Antiviral activity against Monkeypox virus V81-I-179 infected in african green monkey BSC-40 cells at 0.005 uM uM by IHC staining-based plaque reduction assay; type: functional, organism-based
[30] = tested on: Variola virus; experiment: Antiviral activity against Variola virus BSH74-sol infected in african green monkey BSC-40 cells at 0.005 uM uM by IHC staining-based plaque reduction assay; type: functional, organism-based
[31] = tested on: Monkeypox virus; experiment: Antiviral activity against Monkeypox virus V1979-I-005 infected in african green monkey BSC-40 cells assessed as reduction in virus-induced cytopathic effect; type: functional, organism-based; conditions: V1979-I-005, BSC-40
[32] = tested on: Variola virus; experiment: Antiviral activity against Variola virus SOM77-ali infected in african green monkey BSC-40 cells at 0.005 uM uM by IHC staining-based plaque reduction assay; type: functional, organism-based
[33] = tested on: Monkeypox virus; experiment: Antiviral activity against Monkeypox virus V77-I-823 infected in african green monkey BSC-40 cells at 0.015 uM by IHC staining-based comet tail reduction assay; type: functional, organism-based
[34] = tested on: Variola virus; experiment: microbe, parasite or virus in culture; conditions: NEP73-175, BSC-40
[35] = tested on: Monkeypox virus; experiment: Antiviral activity against Monkeypox virus 2003-USA-039 infected in african green monkey BSC-40 cells at 0.015 uM by IHC staining-based comet tail reduction assay; type: functional, organism-based
[36] = tested on: Monkeypox virus; experiment: Antiviral activity against Monkeypox virus V1979-I-005 infected in african green monkey BSC-40 cells assessed as reduction in virus-induced cytopathic effect at 0.005 uM; type: functional, organism-based
[37] = tested on: Variola virus; experiment: microbe, parasite or virus in culture; conditions: SOM77-ali, BSC-40

O=C(NN1C(=O)[C@@H]2[C@@H]3C=C[C@@H]([C@H]4C[C@@H]34)[C@@H]2C1=O)c1ccc(C(F)(F)F)cc1 [TECOVIRIMAT]
Activity [1]: inactive
Activity [2]: inactive
Activity [3]: inactive
Activity [4]: Active
Activity [5]: Active
Activity [6]: Active
Activity [7]: Active
Activity [8]: inactive
Activity [9]: Active
Activity [10]: Active
Activity [11]: inactive
Activity [12]: Active
Activity [13]: Active
inhibition (INH) [14]: 50%
Activity [15]: Active
Activity [16]: inactive
Activity [17]: Active
Activity [18]: inactive
Activity [19]: Active
EC50 [20]: 36 nM
Activity [21]: Active
Activity [22]: Active
EC50 [23]: 28 nM
inhibition (INH) [24]: 50%
Activity [25]: Active
inhibition (INH) [26]: 50%
Activity [27]: inactive
EC50 [28]: 32 nM
Activity [29]: inactive
Activity [30]: inactive
EC50 [31]: 39 nM
Activity [32]: inactive
Activity [33]: Active
EC50 [34]: 21 nM
Activity [35]: Active
Activity [36]: inactive
EC50 [37]: 28 nM
